Like-named read-outs stand apart in the source and are kept apart here.
Key:
HIV-1 [1] = tested on: HIV-1; parameters: method as in PMID 15790304; conditions: cited from earlier work
vaginal mucosa = tested on: vaginal mucosa; parameters: method as in PMID 11162774; conditions: vaginal toxicity, New Zealand White rabbit; cited from earlier work
R5-tropic HIV-1Ba-L [2] = assay: Inhibition of infection of macrophages by R5-HIV-1Ba-L (p24 ELISA); format: cell-based; conditions: MΦ, mean ± 1 SD
Experimental: (§1) Primary X4-HIV-1NDK was grown in peripheral blood lymphocytes (PBL) of healthy donors stimulated with PHA and rhIL-2. R5-HIV-1Ba-L was amplified in monocyte-derived macrophages of healthy donors.
(§2) Cells were washed 2 times after 6 days of differentiation and seeded into 96-well culture plates (5 × 10^5 cells/well). HIV-1 (1 ng p24 antigen/ml) and increasing concentrations of molecules were added on cells and incubated for 3 hours at 37°C in a 5% CO2 atmosphere. Each sample was performed in triplicate. After 4 washes to remove exceeding virus, cells were cultured for 3 days. […] In this last case, supernatants were harvested and viruses produced were lysed by incubation for 45 minutes at 37°C with 1% Triton X-100.

X4-tropic HIV-1NDK [3] = assay: Inhibition of infection of macrophages by X4-HIV-1NDK (p24 ELISA); format: cell-based; conditions: MΦ, mean ± 1 SD
Experimental: as §1, §2

R5-tropic HIV-1Ba-L [4] = assay: Inhibition of infection of dendritic cells by R5-HIV-1Ba-L (p24 ELISA); format: cell-based; conditions: DC, mean ± 1 SD
Experimental: as §1, §2

X4-tropic HIV-1NDK [5] = assay: Inhibition of infection of dendritic cells by X4-HIV-1NDK (p24 ELISA); format: cell-based; conditions: DC, mean ± 1 SD
Experimental: as §1, §2

R5-tropic HIV-1Ba-L [6] = assay: Inhibition of infection of T cells by R5-HIV-1Ba-L (p24 ELISA); format: cell-based; conditions: mean ± 1 SD
Experimental: as §1, §2

X4-tropic HIV-1NDK [7] = assay: Inhibition of infection of T cells by X4-HIV-1NDK (p24 ELISA); format: cell-based; conditions: mean ± 1 SD
Experimental: as §1, §2

R5-tropic HIV-1 = tested on: R5-tropic HIV-1
Experimental: (§3) To assess the transmission of HIV-1 from MDDC to autologous T-cells, MDDC were incubated into 96-well culture plates (10^5 cells/well) and infected with HIV-1 (1 ng p24) in the presence of increasing concentrations of molecules for 3 hours at 37°C in a 5% CO2 atmosphere. Cells were washed four times and autologous stimulated T cells were added onto infected MDDC at a MDDC/T-cell ratio of 1/5 for 6 days. Each sample was performed in triplicate. Culture supernatants were harvested every 3 days and fresh medium was added. Supernatants were inactivated with 1% Triton X-100. The viral production by T lymphocytes was evaluated the sixth day of the co-culture by measurement of HIV-1 p24 antigen in supernatants using capture ELISA.
(§4) Culture supernatants were harvested after 7 of culture for measurement of HIV p24 antigen.

X4-tropic HIV-1 = tested on: X4-tropic HIV-1
Experimental: as §3, §4

HIV-1 [8] = tested on: HIV-1
[9] = tested on: X4-tropic HIV-1 particles; conditions: 20 μM
Experimental: (§5) As expected, no viral production was detected in control wells containing triton X100-treated HIV-1 and activated PBL (negative control).
(§6) HIV-1 was adsorbed on poly-L-lysin pre-coated wells (Greiner Bio-One) at 4°C overnight and further incubated with C14 for 1 h. In positive and negative control wells, 1% Triton X-100 and medium were added, respectively. […] After 6 days, viral production was assessed by p24 Ag capture ELISA.

[10] = tested on: R5-tropic HIV-1Ba-L particles
Experimental: as §5, §6

R5-tropic HIV-1Ba-L [11] = conditions: 1 μM, 3 hours
Experimental: Monocytes or PBL (10E5 cells) were adsorbed on a microscopy-adapted slide for 6 days. MDDC, MDM or PBL were infected in the presence of C14 diluted at 10 μM for 3 hours. Cells were then washed and incubated with or without polyclonal antibodies anti-gp160 (50 μg/ml) at 4°C for 30 minutes. Cells were washed with PBS 0.01% azide 0.5% BSA, and were labelled with polyclonal mouse anti-human IgG-FITC (Jackson ImmunoResearch Laboratories, West Grove, PA, USA) and then fixed with 1% paraformaldehyde. The coverslides were mounted in Mowiol (Sigma-Aldrich). The observations were made by sequential acquisition with a Zeiss LSM510 System, mounted on an Axiovert 100 M optical microscope (Carl Zeiss AG, Oberkochen, Germany), using a planapochromat ×63, 1.4 numerical aperture oil immersion objective. Optical sections were acquired, each one with an image resolution of 512 × 512 pixels.
Cells were incubated with R5-tropic HIV-1Ba-L in the presence of 1 μM of C14 for 3 hours. […]
Monocyte-derived macrophages, monocyte-derived dendritic cells and T cells were incubated with R5 viruses in the presence of increasing concentrations of C14 for 3 hours at 37°C. […] Cells were then analysed by confocal microscopy. […] 30 cells were at least analyzed for each donor.

CD4, CXCR4 and CCR5 = conditions: primary cells treated with C14
Experimental: Cell surface antigens were analyzed by FACSCalibur (Becton Dickinson, NJ, USA) using monoclonal antibodies (mAbs) conjugated with either fluorescein isothiocyanate (FITC) or phyco-erithryn (PE). Following incubation with different mAbs for 30 min at 4°C, cells were washed with PBS containing azide (0.01%), BSA (0.2%) and fixed using 1% formaldehyde PBS buffer.

[12] = tested on: HIV-1 DNA (R5-HIV-1Ba-L or X4-HIV-1NDK); assay: HIV-1 DNA content of primary cells by real time PCR; conditions: all primary cells, whatever the viral strain; increasing doses
Experimental: Genomic DNA was isolated from HIV-infected macrophages by using extraction protocol on a silica column system according to the manufacturer's instructions (Qiagen DNA minikit, AG, Basel, Switzerland). […] The LC-PCR master mix contained 1 × Fast-Start Taq DNA polymerase reaction buffer (Roche Applied Science), 3 mM MgCl2, 0.3 μM of each primer and probe. Cycling conditions were as follows: initial denaturation/FastStart Taq DNA polymerase activation at 95°C/10 minutes, 45 cycles of denaturation at 95°C/10 seconds, annealing and extension at 60°C/30 seconds with a ramp of 5°C/seconds. The first PCR cycle allowing fluorescence detection permitted to quantify HIV-1 DNA by reference to a standard curve (dilutions of 8E5 cell DNA). All reactions were performed in triplicate and tested in the same assay. […] The normalized value of cell-associated HIV-1 DNA loads corresponding to the ratio [(HIV-1 copy number/albumin copy number) × 2 × 10^6], was finally expressed as the number of HIV-1 DNA copies per 10^6 cells.
Monocyte-derived macrophages (A), monocyte-derived dendritic cells (B) and T cells (C) were incubated with R5 or X4 viruses in the presence of increasing concentrations of C14 or an unique dose of T 20 (5 μM) for 3 hours at 37°C. […] DNA was extracted and the viral DNA was quantified by real time PCR. […]

For C=C(C)[C@@H]1CC[C@]2(C(=O)NCCCCCCCC(=O)N[C@@H](CC(C)C)[C@H](O)CC(=O)O)CC[C@]3(C)[C@H](CC[C@@H]4[C@@]5(C)CC[C@H](O)C(C)(C)[C@@H]5CC[C@]43C)[C@@H]12 [IC9564], the “inhibition of HIV-1 replication, active concentration” value (HIV-1 [1]) is listed as “nanomolar concentrations”.

In the case of C=C(C)[C@@H]1CC[C@]2(C(=O)O)CC[C@]3(C)[C@H](CC[C@@H]4[C@@]5(C)CC[C@H](OC(=O)CC(C)(C)C(=O)O)C(C)(C)[C@@H]5CC[C@]43C)[C@@H]12 [PA-457], the “inhibition of HIV-1 replication, active concentration” value (HIV-1 [1]) is given as “nanomolar concentrations”.

In the case of CCCCCCCCCc1ccc(OCCOCCOCCOCCOCCOCCOCCOCCOCCO)cc1 [nonoxynol-9], the “score of histological changes” value (vaginal mucosa) is given as “about 8 ± 3”.

For zinc tetra-ascorbo-camphorate [C14], the IC50 (R5-tropic HIV-1Ba-L [2]) was 1.3 ± 1 µM, the IC50 (X4-tropic HIV-1NDK [3]) was 0.02 µM and the IC50 (R5-tropic HIV-1Ba-L [4]) was 1.3 ± 0.1 µM. It also gave an IC50 (X4-tropic HIV-1NDK [5]) of 1.8 ± 0.1 µM, an IC50 (R5-tropic HIV-1Ba-L [6]) of 0.8 µM and an IC50 (X4-tropic HIV-1NDK [7]) of 0.7 ± 0.1 µM. The “inhibition of HIV-1 transfer from DC to T cells” value (R5-tropic HIV-1; 1 μM) was “about 95%”, the “inhibition of HIV-1 transfer from DC to autologous T cells” value (R5-tropic HIV-1; low concentrations) was “more than 90%” and the “inhibition of HIV-1 transfer from DC to T cells” value (X4-tropic HIV-1; 1 μM) was “about 95%”. For the same compound, the “inhibition of HIV-1 transfer from DC to autologous T cells” value (X4-tropic HIV-1; low concentrations) was “more than 90%”, the IC50 (HIV-1 [8]; different primary cells) was 1 µM and the EC50 (HIV-1 [8]; infection of all the primary cells tested) was 1 µM. For the same compound, the “disruption of HIV-1 particles” value [9] was 58 ± 2%, the “HIV-1 production by activated PBL, virus treated versus untreated with C14” value [10] was “similar” and the “inhibition of entry of viruses” value (R5-tropic HIV-1Ba-L [11]; T cells) was “inhibited the entry of viruses only into T cells”. The “inhibition of entry of viruses” value (R5-tropic HIV-1Ba-L [11]; macrophages and DCs) was “unlike in macrophages and DCs”, the “cell surface expressions of CD4, CXCR4 and CCR5” value (CD4, CXCR4 and CCR5) was “not altered” and the “reduction of the HIV-1 DNA content” value [12] was 2–3 log.
